# Measured values from patent publication US10947213B1 (Merck Patent GmbH, priority 2015, dated 2021).
# Where a name gives a salt, the structure may show the parent alone.
# Target: T1, TLR7/NFKb HEK cells (Homo sapiens, UniProt Q9NYK1)
# T1 construct: expressed in transfected cells; host or cells: HEK cells (TLR7/NFKb reporter line)
# T1 sequence (Q9NYK1 27-1049): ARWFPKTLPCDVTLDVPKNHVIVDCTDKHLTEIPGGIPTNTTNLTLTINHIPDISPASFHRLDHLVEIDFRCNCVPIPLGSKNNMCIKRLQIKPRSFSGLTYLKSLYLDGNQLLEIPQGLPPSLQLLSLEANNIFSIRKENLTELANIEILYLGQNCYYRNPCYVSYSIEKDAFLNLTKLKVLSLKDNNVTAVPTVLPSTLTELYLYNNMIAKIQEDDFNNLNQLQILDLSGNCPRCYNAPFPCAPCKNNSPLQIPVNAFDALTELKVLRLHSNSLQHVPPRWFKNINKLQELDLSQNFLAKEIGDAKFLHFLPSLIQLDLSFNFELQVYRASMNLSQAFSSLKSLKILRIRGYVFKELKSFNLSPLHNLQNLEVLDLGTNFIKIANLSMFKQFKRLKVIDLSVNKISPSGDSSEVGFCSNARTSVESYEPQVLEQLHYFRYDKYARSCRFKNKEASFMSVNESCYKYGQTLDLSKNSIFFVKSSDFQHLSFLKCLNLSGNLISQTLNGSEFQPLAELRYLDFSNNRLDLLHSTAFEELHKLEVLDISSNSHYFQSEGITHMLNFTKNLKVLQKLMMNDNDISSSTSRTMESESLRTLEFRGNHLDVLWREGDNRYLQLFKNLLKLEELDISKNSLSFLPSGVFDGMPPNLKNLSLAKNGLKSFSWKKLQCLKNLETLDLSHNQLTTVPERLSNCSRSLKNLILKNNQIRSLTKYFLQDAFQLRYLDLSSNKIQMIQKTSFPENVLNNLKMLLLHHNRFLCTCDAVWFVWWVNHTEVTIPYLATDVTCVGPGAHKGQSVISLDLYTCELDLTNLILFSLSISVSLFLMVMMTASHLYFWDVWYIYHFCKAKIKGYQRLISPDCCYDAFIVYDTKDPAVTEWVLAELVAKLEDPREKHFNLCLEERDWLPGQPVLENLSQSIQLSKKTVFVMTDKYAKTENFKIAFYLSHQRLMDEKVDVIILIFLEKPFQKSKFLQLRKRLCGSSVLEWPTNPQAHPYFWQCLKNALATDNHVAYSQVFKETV
# Assay: HEK Cell Assay (TLR7/NFKb reporter, Steady-Glo luciferase readout)
# Type: cell-based
# Conditions: 30 min compound preincubation, then R*48 agonist for 5 hours, read-out: Potency
# Summary of the method: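 Steady-Glo luminescence after 5 h stimulation with R*48 agonist, following 30 min compound preincubation. Assay run in HEK cells carrying a TLR7/NFKb luciferase reporter, plated at 5000 cells/well and grown 24 h at 37° C (10% CO2) before treatment.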
row,SMILES,IC50 [µM]
1,"C[C@H]1C[C@@H](NC(=O)CN2CCOCC2)CN(c2ccc(Cl)c3ncccc23)C1 [Compound 262, N-[(3R,5S)-1-(8-chloroquinolin-5-yl)-5-methylpiperidin-3-yl]-2-(morpholin-4-yl)acetamide]",< 1
2,"C[C@H]1C[C@@H](NC(=O)CO)CN(c2ccc(Cl)c3ncccc23)C1 [Compound 263, N-[(3R,5S)-1-(8-chloroquinolin-5-yl)-5-methylpiperidin-3-yl]-2-hydroxyacetamide]",< 1
3,"C[C@H]1C[C@@H](NC(=O)CN(C)C)CN(c2ccc(Cl)c3ncccc23)C1 [Compound 264, N-[(3R,5S)-1-(8-chloroquinolin-5-yl)-5-methylpiperidin-3-yl]-2-(dimethylamino)acetamide]",< 1
4,"CC(O)C(=O)N[C@@H]1C[C@H](C)CN(c2ccc(C#N)c3nccnc23)C1 (stereo partly drawn) [Compound 265, N-[(3R,5S)-1-(8-cyanoquinoxalin-5-yl)-5-methylpiperidin-3-yl]-2-hydroxypropanamide]",< 1
5,"C[C@H]1C[C@@H](NC(=O)CC2CCCN(C)C2)CN(c2ccc(C#N)c3nccnc23)C1 (stereo partly drawn) [Compound 266, N-[(3R,5S)-1-(8-cyanoquinoxalin-5-yl)-5-methylpiperidin-3-yl]-2-(1-methylpiperidin-3-yl)acetamide hydrochloride]",< 1
6,"CC(C(=O)N[C@@H]1C[C@H](C)CN(c2ccc(C#N)c3nccnc23)C1)N1CC(N)C1 (stereo partly drawn) [Compound 267, 2-(3-aminoazetidin-1-yl)-N-[(3R,5S)-1-(8-cyanoquinoxalin-5-yl)-5-methylpiperidin-3-yl]propanamide]",< 1
7,"C[C@H]1C[C@@H](NC(=O)C(N)C2CC2)CN(c2ccc(C#N)c3nccnc23)C1 (stereo partly drawn) [Compound 268, 2-amino-N-[(3R,5S)-1-(8-cyanoquinoxalin-5-yl)-5-methylpiperidin-3-yl]-2-cyclopropylacetamide]",< 1
8,"C[C@H]1C[C@@H](NC(=O)CC2CCN(C)C2)CN(c2ccc(C#N)c3nccnc23)C1 (stereo partly drawn) [Compound 269, N-[(3R,5S)-1-(8-cyanoquinoxalin-5-yl)-5-methylpiperidin-3-yl]-2-(1-methylpyrrolidin-3-yl)acetamide]",< 1
9,C[C@H]1C[C@@H](NC(=O)CN2CC(O)C2)CN(c2ccc(C#N)c3nccnc23)C1 [Compound 270],< 1
10,CC(C(=O)N[C@@H]1C[C@H](C)CN(c2ccc(C#N)c3nccnc23)C1)N1CC(O)C1 (stereo partly drawn) [Compound 271],< 1
11,"C[C@H]1C[C@@H](NC(=O)CC2CC2(F)F)CN(c2ccc(C#N)c3nccnc23)C1 (stereo partly drawn) [Compound 272, N-[(3R,5S)-1-(8-cyanoquinoxalin-5-yl)-5-methylpiperidin-3-yl]-2-(2,2-difluorocyclopropyl)acetamide]",< 1
12,"CC(C(=O)N[C@@H]1C[C@H](C)CN(c2ccc(C#N)c3nccnc23)C1)N1CC(F)(F)C1 (stereo partly drawn) [Compound 273, N-[(3R,5S)-1-(8-cyanoquinoxalin-5-yl)-5-methylpiperidin-3-yl]-2-(3,3-difluoroazetidin-1-yl)propanamide]",1 to 10
13,"CC(C(=O)N[C@@H]1C[C@H](C)CN(c2ccc(C#N)c3nccnc23)C1)N1CCC(O)CC1 (stereo partly drawn) [Compound 275, N-[(3R,5S)-1-(8-cyanoquinoxalin-5-yl)-5-methylpiperidin-3-yl]-2-(4-hydroxypiperidin-1-yl)propanamide]",< 1

# More lines, now with the values ahead:
row,IC50 [µM],SMILES
1,< 1,"C[C@H]1C[C@@H](NC(=O)CC2CNC2)CN(c2ccc(C#N)c3nccnc23)C1 [Compound 274, 2-(azetidin-3-yl)-N-[(3R,5S)-1-(8-cyanoquinoxalin-5-yl)-5-methylpiperidin-3-yl]acetamide]"
2,< 1,"C[C@H]1C[C@@H](NC(=O)CN2CCCN(C)CC2)CN(c2ccc(C#N)c3nccnc23)C1 [Compound 276, N-[(3R,5S)-1-(8-cyanoquinoxalin-5-yl)-5-methylpiperidin-3-yl]-2-(4-methyl-1,4-diazepan-1-yl)acetamide]"
3,< 1,"C[C@H]1C[C@@H](NC(=O)CC(C)(C)CN)CN(c2ccc(C#N)c3nccnc23)C1 [Compound 277, 4-amino-N-[(3R,5S)-1-(8-cyanoquinoxalin-5-yl)-5-methylpiperidin-3-yl]-3,3-dimethylbutanamide]"
4,< 1,"CC(O)C(=O)N[C@@H]1C[C@H](C)CN(c2ccc(C(F)(F)F)c3ncccc23)C1 (stereo partly drawn) [Compound 278, 2-hydroxy-N-[(3R,5S)-5-methyl-1-[8-(trifluoromethyl)quinolin-5-yl]piperidin-3-yl]propanamide]"
5,< 1,"C[C@H]1C[C@@H](NC(=O)CC2CCCN(C)C2)CN(c2ccc(C(F)(F)F)c3ncccc23)C1 (stereo partly drawn) [Compound 279, N-[(3R,5S)-5-methyl-1-[8-(trifluoromethyl)quinolin-5-yl]piperidin-3-yl]-2-(1-methylpiperidin-3-yl)acetamide]"
6,< 1,"C[C@H]1C[C@@H](NC(=O)CN2CC(N)C2)CN(c2ccc(C(F)(F)F)c3ncccc23)C1 [Compound 280, 2-(3-aminoazetidin-1-yl)-N-[(3R,5S)-5-methyl-1-[8-(trifluoromethyl)quinolin-5-yl]piperidin-3-yl]acetamide]"
7,< 1,"CC(C(=O)N[C@@H]1C[C@H](C)CN(c2ccc(C(F)(F)F)c3ncccc23)C1)N1CC(N)C1 (stereo partly drawn) [Compound 281, 2-(3-aminoazetidin-1-yl)-N-[(3R,5S)-5-methyl-1-[8-(trifluoromethyl)quinolin-5-yl]piperidin-3-yl]propanamide]"
8,< 1,"C[C@H]1C[C@@H](NC(=O)C(N)C2CC2)CN(c2ccc(C(F)(F)F)c3ncccc23)C1 (stereo partly drawn) [Compound 282, 2-amino-2-cyclopropyl-N-[(3R,5S)-5-methyl-1-[8-(trifluoromethyl)quinolin-5-yl]piperidin-3-yl]acetamide]"
9,< 1,"C[C@H]1C[C@@H](NC(=O)CC2CCN(C)C2)CN(c2ccc(C(F)(F)F)c3ncccc23)C1 (stereo partly drawn) [Compound 283, N-[(3R,5S)-5-methyl-1-[8-(trifluoromethyl)quinolin-5-yl]piperidin-3-yl]-2-(1-methylpyrrolidin-3-yl)acetamide hydrochloride]"
10,< 1,C[C@H]1C[C@@H](NC(=O)CN2CC(O)C2)CN(c2ccc(C(F)(F)F)c3ncccc23)C1 [Compound 284]
11,< 1,"CC(C(=O)N[C@@H]1C[C@H](C)CN(c2ccc(C(F)(F)F)c3ncccc23)C1)N1CC(O)C1 (stereo partly drawn) [Compound 285, 2-(3-hydroxyazetidin-1-yl)-N-[(3R,5S)-5-methyl-1-[8-(trifluoromethyl)quinolin-5-yl]piperidin-3-yl]propanamide]"
12,< 1,"C[C@H]1C[C@@H](NC(=O)CC2CC2(F)F)CN(c2ccc(C(F)(F)F)c3ncccc23)C1 (stereo partly drawn) [Compound 286, 2-(2,2-difluorocyclopropyl)-N-[(3R,5S)-5-methyl-1-[8-(trifluoromethyl)quinolin-5-yl]piperidin-3-yl]acetamide]"
13,< 1,"CC(C(=O)N[C@@H]1C[C@H](C)CN(c2ccc(C(F)(F)F)c3ncccc23)C1)N1CC(F)(F)C1 (stereo partly drawn) [Compound 287, 2-(3,3-difluoroazetidin-1-yl)-N-[(3R,5S)-5-methyl-1-[8-(trifluoromethyl)quinolin-5-yl]piperidin-3-yl]propanamide]"
14,< 1,"C[C@H]1C[C@@H](NC(=O)CC2CNC2)CN(c2ccc(C(F)(F)F)c3ncccc23)C1 [Compound 288, 2-(azetidin-3-yl)-N-[(3R,5S)-5-methyl-1-[8-(trifluoromethyl)quinolin-5-yl]piperidin-3-yl]acetamide]"
15,< 1,"CC(C(=O)N[C@@H]1C[C@H](C)CN(c2ccc(C(F)(F)F)c3ncccc23)C1)N1CCC(O)CC1 (stereo partly drawn) [Compound 289, 2-(4-hydroxypiperidin-1-yl)-N-[(3R,5S)-5-methyl-1-[8-(trifluoromethyl)quinolin-5-yl]piperidin-3-yl]propanamide]"
16,< 1,"C[C@H]1C[C@@H](NC(=O)CN2CCCN(C)CC2)CN(c2ccc(C(F)(F)F)c3ncccc23)C1 [Compound 290, 2-(4-methyl-1,4-diazepan-1-yl)-N-[(3R,5S)-5-methyl-1-[8-(trifluoromethyl)quinolin-5-yl]piperidin-3-yl]acetamide]"
17,< 1,"C[C@H]1C[C@@H](NC(=O)CC(C)(C)CN)CN(c2ccc(C(F)(F)F)c3ncccc23)C1 [Compound 291, 4-amino-3,3-dimethyl-N-[(3R,5S)-5-methyl-1-[8-(trifluoromethyl)quinolin-5-yl]piperidin-3-yl]butanamide]"
